Data: US6229016A, “Method for treating tumors using 2-aryl-naphthyridin-4-ones” (priority 2000, dated 2001)
Where two headings read alike, the source gives them in different places.

Assays:
[1] = test system: U-251 CNS cancer cell line; test: NCI in vitro screen, CNS cancer U-251; format: cell-based; conditions: Homo sapiens, read-out: Cytotoxicity log GI50 (converted)
[2] = test system: NCI's 60 human tumor cell line; test: NCI 60 human tumor cell line in vitro screen (average / whole panel); format: cell-based; conditions: calculated from all cell lines tested, molar concentrations, read-out: average log GI50 (converted)
[3] = test system: PC-3 prostate cancer cell line; test: NCI in vitro screen, prostate cancer PC-3; format: cell-based; conditions: Homo sapiens, read-out: Cytotoxicity log GI50 (converted)
Text: (§1) Compounds 41-51 and 53-68 were submitted to NCI and assayed in the NCI's in vitro disease-oriented antitumor screen, which involves determination of a test compound's effects on the growth of approximately 60 human tumor cell lines. See, M. R. Boyd, et al. In Cancer: Principles and Practice of Oncology Updates; De Vita, V. T., Hellman, S., Rosenberg, S. A., Eds; J. B. Lippincoft: Philadelphia, pp 1-12 (1989); and A. Monks, et al. J. Natl. Cancer Inst. 83:757 (1991). These lines include leukemia, non-small cell lung, colon, central nervous system (CNS), melanoma, ovarian, renal, prostate, and breast cancers.
(§2) Compounds 29'-51' were submitted to NCI and assayed in the NCI's in vitro disease-oriented antitumor screen, using the techniques described in Example 5. This assay involves determinations of a test agent's effect on growth parameters against a panel of approximately 60 human tumor cell lines, derived largely from solid tumors, including non-small cell lung, colon, central nervous system, renal, ovarian, prostate, and breast cancers, plus a few leukemia cell lines. The cytotoxic effects of each compound are obtained as GI50 or […] values, which represent the molar drug concentrations required to cause half growth inhibition and total growth inhibition, respectively. The results are expressed for each cell line as average log GI50 values in Table 4, as log GI50 values in Table 5, and as log TGI values and average log TGI values in Table 6.

[4] = test system: MDA-MB-435 breast cancer cell line; test: NCI in vitro screen, breast cancer MDA-MB-435; format: cell-based; conditions: Homo sapiens; for IC (TGI): range over four compounds and two cell lines, read-out: log TGI; for GI50: read-out: Cytotoxicity log GI50 (converted)
[5] = test system: SK-MEL-5 melanoma cell line; test: NCI in vitro screen, melanoma SK-MEL-5; format: cell-based; conditions: Homo sapiens, read-out: Cytotoxicity log GI50 (converted)
Text: as §1, §2

[6] = test system: OVCAR-3 ovarian cancer cell line; test: NCI in vitro screen, ovarian cancer OVCAR-3; format: cell-based; conditions: Homo sapiens, read-out: Cytotoxicity log GI50 (converted)
[7] = test system: NCI-H460 non-small cell lung cancer cell line; test: NCI in vitro screen, non-small cell lung cancer NCI-H460; format: cell-based; conditions: Homo sapiens, read-out: Cytotoxicity log GI50 (converted)
[8] = test system: HL-60(TB) leukemia cell line; test: cells; format: cell-based; conditions: Homo sapiens; for IC (TGI): HL-60, H-60 cell line, range over four compounds, read-out: log TGI; for GI50: HL-60(TB), read-out: Cytotoxicity log GI50 (converted)
[9] = test system: SF-295 CNS cancer cell line; test: NCI in vitro screen, CNS cancer SF-295; format: cell-based; conditions: Homo sapiens, read-out: Cytotoxicity log GI50 (converted)
[10] = test system: 786-0 renal cancer cell line; test: NCI in vitro screen, renal cancer 786-0; format: cell-based; conditions: Homo sapiens, read-out: Cytotoxicity log GI50 (converted)
Text: as §1, §2

[11] = test system: NCI-H226 cell line; test: NCI in vitro screen, NCI-H226; format: cell-based; conditions: Homo sapiens, range over four compounds, read-out: log TGI
Text: as §1

[12] = test system: MDA-N breast cancer cell line; test: NCI in vitro screen, breast cancer MDA-N; format: cell-based; conditions: Homo sapiens; for IC (TGI): range over four compounds and two cell lines, read-out: log TGI; for GI50: read-out: Cytotoxicity log GI50 (converted)
Text: as §1, §2

[13] = test system: HCT-116 colon cancer cell line; test: NCI in vitro screen, colon cancer HCT-116; format: cell-based; conditions: Homo sapiens; HCT-1.16 (head); HCT-116 (footnote); read-out: Cytotoxicity log GI50 (converted)
[14] = test system: tubulin; test: Tubulin polymerization assay; format: biochemical, bovine
Procedure: Electrophoretically homogeneous bovine brain tubulin was purified as described in E. Hamel, et al. Biochemistry 23:4173 (1984).
The tubulin polymerization assay was performed as described in S. Kuo, et al. J. Med. Chem. 36:1146 (1993); L. Li, et al. J. Med. Chem. 37:1126 (1994); and L. Li J. Med. Chem. 37:3400 (1994). In brief, tubulin at 1.2 mg/ml (12 μM) was preincubated for 15 min at 26° C. in a 0.24-ml volume of 0.8 M monosodium glutamate (pH 6.6 with NaOH in a 2 M stock solution) with varying drug concentrations. The drug stock solutions were in DMSO, and the final solvent concentration was 4 % (v/v). All concentrations are in terms of the final reaction volume (0.25 ml). The reaction mixtures were chilled on ice, and 10 μl of 10 mM GTP was added to each reaction mixture. Samples were transferred to cuvettes held at 0° C. by an electronic temperature controller in Gilford spectrophotometers. Baselines were established at 350 nm, and polymerization initiated by a temperature jump to 26° C. The jump took about 50 sec to complete. After 20 min, turbidity readings were recorded, and the temperature controller was set to 0C. When depolymerization was complete, turbidity readings were again recorded. […] IC50 values were obtained graphically from inhibition of polymerization by different drug concentrations.
Electrophoretically, homogeneous bovine brain tubulin was purified as described in Example 6.
The tubulin polymerization assay was performed as described in Example 6.

[15] = Tables 1 and 4, read-out: ITP HC50 ± SD (Inhibition of Tubulin Polymerization)
[16] = read-out: IC50, inhibition of tubulin polymerization

| Structure (SMILES) | GI50 [1] [µM] | GI50 [2] [µM] | GI50 [3] [µM] | IC (TGI) [4] [µM] | GI50 [4] [µM] | GI50 [5] [µM] | GI50 [6] [µM] | GI50 [7] [µM] | IC (TGI) [8] [µM] | GI50 [8] [µM] | GI50 [9] [µM] | GI50 [10] [µM] | IC (TGI) [11] [µM] | IC (TGI) [12] [µM] | GI50 [12] [µM] | GI50 [13] [µM] | IC50 [14, 15] [µM] | IC50 [14, 16] [µM] |
| --- | --- | --- | --- | --- | --- | --- | --- | --- | --- | --- | --- | --- | --- | --- | --- | --- | --- | --- |
| COc1cccc(-c2cc(=O)c3cccnc3[nH]2)c1 [Compound 44] | 0.055 | 0.135 | 0.0933 | 0.0214 to 0.0398 | < 0.01 | 0.0537 | 0.055 | 0.0912 | 0.0398 to 0.0646 | 0.0162 | 0.0525 | 0.0617 | 0.0759 to 0.692 | 0.0214 to 0.0398 | < 0.01 | 0.0363 |  |  |
| COc1cccc(-c2cc(=O)c3cc(C)cnc3[nH]2)c1 [Compound 46] | 0.0447 | 0.0955 | 0.0427 | 0.0214 to 0.0398 | < 0.01 | 0.0257 | 0.0417 | 0.0437 | 0.0398 to 0.0646 | 0.0191 | 0.0372 | 0.0372 | 0.0759 to 0.692 | 0.0214 to 0.0398 | < 0.01 | 0.0224 |  |  |
| COc1cccc(-c2cc(=O)c3ccc(C)nc3[nH]2)c1 [Compound 47] | 0.0537 | 0.0575 | 0.0331 | 0.0214 to 0.0398 | < 0.01 | 0.0339 | 0.0224 | 0.0437 | 0.0398 to 0.0646 | 0.0182 | 0.0302 | 0.0537 | 0.0759 to 0.692 | 0.0214 to 0.0398 | 0.011 | 0.0468 |  |  |
| O=C1CC(c2ccc(F)cc2)=Nc2ncccc21 [Compound 56, 2-(4'-Fluorophenyl)-1,8-naphthyridin-4-one] | 47.9 | 45.7 | 45.7 |  | 12 | 30.2 | 45.7 | 34.7 |  | 12.9 | 50.1 | 44.7 |  |  | 14.1 | 42.7 | > 40 |  |
| Cc1ccnc2c1C(=O)CC(c1ccc(F)cc1)=N2 [Compound 57, 2-(4'-Fluorophenyl)-5-methyl-1,8-naphthyridin-4-one] | 36.3 | 38 | 51.3 |  | 2.88 | 16.2 | 56.2 | 32.4 |  | 4.79 | 79.4 | 33.9 |  |  | 3.55 | 16.2 | 18 ± 2 | 11 to 32 |
| Cc1cnc2c(c1)C(=O)CC(c1ccc(F)cc1)=N2 [Compound 58, 2-(4'-Fluorophenyl)-6-methyl-1,8-naphthyridin-4-one] | 25.1 | 26.3 | 25.7 |  | 2.63 | 21.9 | 22.4 | 33.9 |  | 2.4 | 29.5 | 32.4 |  |  | 3.02 | 24 | 20 ± 2 | 11 to 32 |
| Cc1ccc2c(n1)N=C(c1ccc(F)cc1)CC2=O [Compound 59, 2-(4'-Fluorophenyl)-7-methyl-1,8-naphthyridin-4-one] | 37.2 | 32.4 | 20.9 |  | 5.89 | 31.6 | 32.4 | 33.9 |  | 14.1 | 37.2 | 41.7 |  |  | 11.7 | 33.9 | > 40 | > 40 |
